What all share (conditions): Compound concentration 10 µM
In experiment [1] the target is T1, Alpha-1B adrenergic receptor (Homo sapiens) (UniProt P35368).
T1 sequence (whole entry): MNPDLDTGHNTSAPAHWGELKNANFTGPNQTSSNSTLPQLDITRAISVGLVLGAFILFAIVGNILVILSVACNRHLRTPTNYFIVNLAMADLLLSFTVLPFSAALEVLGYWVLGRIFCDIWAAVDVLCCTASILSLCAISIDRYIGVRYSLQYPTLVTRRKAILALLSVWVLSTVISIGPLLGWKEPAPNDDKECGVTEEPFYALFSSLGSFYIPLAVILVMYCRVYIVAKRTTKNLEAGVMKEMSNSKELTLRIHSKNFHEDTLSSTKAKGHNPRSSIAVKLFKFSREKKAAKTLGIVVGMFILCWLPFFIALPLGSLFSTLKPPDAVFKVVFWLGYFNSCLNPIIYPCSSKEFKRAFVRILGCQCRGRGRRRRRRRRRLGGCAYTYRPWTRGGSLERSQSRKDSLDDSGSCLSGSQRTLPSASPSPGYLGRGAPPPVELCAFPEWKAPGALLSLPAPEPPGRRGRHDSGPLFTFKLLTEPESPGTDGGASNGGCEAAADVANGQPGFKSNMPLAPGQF
Description: PDSP Primary Binding target: ADRA1B - Compounds are tested at 10 uM concentration, plate are incubated at room temperature in the dark for 90 minutes. Reaction are stopped by vacuum filtration onto 0.3% polyethyleneimine soaked filter mats using Filtermate harvester. Scintilation cocktail is then melted onto microwave-dried filters on a hot plate and the radio activity is counted in Microbia counter.

The target of experiment [2] is T2, Alpha-1D adrenergic receptor (Homo sapiens) (UniProt P25100).
T2 sequence (whole entry): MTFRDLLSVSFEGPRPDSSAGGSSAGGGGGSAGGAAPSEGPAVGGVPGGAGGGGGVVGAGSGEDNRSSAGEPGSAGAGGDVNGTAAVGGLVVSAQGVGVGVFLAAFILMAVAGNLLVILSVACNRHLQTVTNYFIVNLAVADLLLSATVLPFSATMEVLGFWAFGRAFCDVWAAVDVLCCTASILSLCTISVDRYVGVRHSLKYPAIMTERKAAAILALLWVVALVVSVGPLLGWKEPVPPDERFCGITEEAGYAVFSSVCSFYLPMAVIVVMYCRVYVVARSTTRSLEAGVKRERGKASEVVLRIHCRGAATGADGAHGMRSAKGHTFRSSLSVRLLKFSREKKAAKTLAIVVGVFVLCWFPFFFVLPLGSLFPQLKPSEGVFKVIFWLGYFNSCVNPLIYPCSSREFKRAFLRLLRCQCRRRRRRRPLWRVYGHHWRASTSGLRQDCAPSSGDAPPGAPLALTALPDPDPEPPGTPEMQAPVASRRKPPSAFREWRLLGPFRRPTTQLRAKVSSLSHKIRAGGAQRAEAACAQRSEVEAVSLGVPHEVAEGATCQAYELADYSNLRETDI
Description: PDSP Primary Binding target: ADRA1D - Compounds are tested at 10 uM concentration, plate are incubated at room temperature in the dark for 90 minutes. Reaction are stopped by vacuum filtration onto 0.3% polyethyleneimine soaked filter mats using Filtermate harvester. Scintilation cocktail is then melted onto microwave-dried filters on a hot plate and the radio activity is counted in Microbia counter.

In experiment [3] the target is T3, Alpha-2A adrenergic receptor (Homo sapiens) (UniProt P08913).
T3 sequence (whole entry): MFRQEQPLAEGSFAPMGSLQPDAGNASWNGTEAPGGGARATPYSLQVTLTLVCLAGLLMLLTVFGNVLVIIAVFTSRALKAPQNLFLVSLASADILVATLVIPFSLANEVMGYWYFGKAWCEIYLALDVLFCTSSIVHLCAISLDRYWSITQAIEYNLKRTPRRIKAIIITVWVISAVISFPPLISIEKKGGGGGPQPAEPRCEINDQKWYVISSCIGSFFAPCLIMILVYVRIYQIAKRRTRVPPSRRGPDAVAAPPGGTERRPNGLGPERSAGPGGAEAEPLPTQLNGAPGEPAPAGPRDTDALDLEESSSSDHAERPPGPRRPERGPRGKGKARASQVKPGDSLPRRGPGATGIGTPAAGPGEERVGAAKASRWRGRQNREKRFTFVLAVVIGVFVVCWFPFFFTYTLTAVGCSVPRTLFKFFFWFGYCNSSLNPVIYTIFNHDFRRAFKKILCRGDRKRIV
Description: PDSP Primary Binding target: ADRA2A - Compounds are tested at 10 uM concentration, plate are incubated at room temperature in the dark for 90 minutes. Reaction are stopped by vacuum filtration onto 0.3% polyethyleneimine soaked filter mats using Filtermate harvester. Scintilation cocktail is then melted onto microwave-dried filters on a hot plate and the radio activity is counted in Microbia counter.

Experiment [4] deals with T4, Alpha-2B adrenergic receptor (Homo sapiens) (UniProt P18089).
T4 sequence (whole entry): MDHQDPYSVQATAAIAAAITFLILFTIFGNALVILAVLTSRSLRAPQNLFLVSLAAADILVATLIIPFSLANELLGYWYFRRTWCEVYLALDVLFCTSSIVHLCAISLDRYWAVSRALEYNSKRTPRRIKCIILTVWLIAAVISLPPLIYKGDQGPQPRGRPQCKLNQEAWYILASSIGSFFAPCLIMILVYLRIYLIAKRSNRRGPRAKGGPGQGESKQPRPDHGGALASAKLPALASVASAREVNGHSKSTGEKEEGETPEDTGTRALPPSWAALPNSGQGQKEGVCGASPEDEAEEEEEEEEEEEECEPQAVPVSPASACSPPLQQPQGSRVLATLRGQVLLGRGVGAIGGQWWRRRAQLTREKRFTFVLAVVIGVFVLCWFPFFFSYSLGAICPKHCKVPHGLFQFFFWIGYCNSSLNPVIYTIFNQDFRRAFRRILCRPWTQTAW
Description: PDSP Primary Binding target: ADRA2B - Compounds are tested at 10 uM concentration, plate are incubated at room temperature in the dark for 90 minutes. Reaction are stopped by vacuum filtration onto 0.3% polyethyleneimine soaked filter mats using Filtermate harvester. Scintilation cocktail is then melted onto microwave-dried filters on a hot plate and the radio activity is counted in Microbia counter.

Experiment [5] has as its target T5, Muscarinic acetylcholine receptor M2 (Homo sapiens) (UniProt P08172).
T5 sequence (whole entry): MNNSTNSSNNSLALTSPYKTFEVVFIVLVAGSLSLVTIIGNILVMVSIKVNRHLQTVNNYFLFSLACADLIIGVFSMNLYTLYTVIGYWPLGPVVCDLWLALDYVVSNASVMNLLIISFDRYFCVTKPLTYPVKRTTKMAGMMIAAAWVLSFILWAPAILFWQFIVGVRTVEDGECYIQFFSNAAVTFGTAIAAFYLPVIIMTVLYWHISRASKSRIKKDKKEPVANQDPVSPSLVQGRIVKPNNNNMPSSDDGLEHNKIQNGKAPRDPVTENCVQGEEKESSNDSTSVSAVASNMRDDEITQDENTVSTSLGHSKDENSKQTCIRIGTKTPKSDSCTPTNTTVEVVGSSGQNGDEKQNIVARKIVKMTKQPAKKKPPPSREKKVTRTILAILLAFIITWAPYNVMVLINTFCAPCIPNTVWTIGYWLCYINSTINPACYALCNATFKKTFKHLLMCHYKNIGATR
Description: PDSP Primary Binding target: CHRM2 - Compounds are tested at 10 uM concentration, plate are incubated at room temperature in the dark for 90 minutes. Reaction are stopped by vacuum filtration onto 0.3% polyethyleneimine soaked filter mats using Filtermate harvester. Scintilation cocktail is then melted onto microwave-dried filters on a hot plate and the radio activity is counted in Microbia counter.

Experiment [6] addresses 5-hydroxytryptamine receptor 6 (Homo sapiens) (UniProt P50406).
Description: PDSP Primary Binding target: HTR6 - Compounds are tested at 10 uM concentration, plate are incubated at room temperature in the dark for 90 minutes. Reaction are stopped by vacuum filtration onto 0.3% polyethyleneimine soaked filter mats using Filtermate harvester. Scintilation cocktail is then melted onto microwave-dried filters on a hot plate and the radio activity is counted in Microbia counter.
The target in experiment [7] is Delta-type opioid receptor (Homo sapiens) (UniProt P41143).
Chain of Delta-type opioid receptor (Homo sapiens) (P41143 whole entry): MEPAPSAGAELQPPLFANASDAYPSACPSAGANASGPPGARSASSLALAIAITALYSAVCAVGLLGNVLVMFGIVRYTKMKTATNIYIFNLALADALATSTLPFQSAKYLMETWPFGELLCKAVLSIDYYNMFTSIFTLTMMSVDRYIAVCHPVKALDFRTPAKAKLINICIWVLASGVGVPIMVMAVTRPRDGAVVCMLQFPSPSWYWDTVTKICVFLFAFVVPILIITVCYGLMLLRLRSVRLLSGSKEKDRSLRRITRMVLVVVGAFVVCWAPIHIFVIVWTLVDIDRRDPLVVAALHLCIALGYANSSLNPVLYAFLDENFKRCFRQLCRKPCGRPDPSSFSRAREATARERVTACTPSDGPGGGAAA
Description: PDSP Primary Binding target: OPRD1 - Compounds are tested at 10 uM concentration, plate are incubated at room temperature in the dark for 90 minutes. Reaction are stopped by vacuum filtration onto 0.3% polyethyleneimine soaked filter mats using Filtermate harvester. Scintilation cocktail is then melted onto microwave-dried filters on a hot plate and the radio activity is counted in Microbia counter.
Experiment [8] concerns the target Mu-type opioid receptor (Homo sapiens) (UniProt P35372).
Description: PDSP Primary Binding target: OPRM1 - Compounds are tested at 10 uM concentration, plate are incubated at room temperature in the dark for 90 minutes. Reaction are stopped by vacuum filtration onto 0.3% polyethyleneimine soaked filter mats using Filtermate harvester. Scintilation cocktail is then melted onto microwave-dried filters on a hot plate and the radio activity is counted in Microbia counter.
The target in experiment [9] is Sodium-dependent serotonin transporter (Homo sapiens) (UniProt P31645).
Chain of Sodium-dependent serotonin transporter (Homo sapiens) (P31645 whole entry, looked up): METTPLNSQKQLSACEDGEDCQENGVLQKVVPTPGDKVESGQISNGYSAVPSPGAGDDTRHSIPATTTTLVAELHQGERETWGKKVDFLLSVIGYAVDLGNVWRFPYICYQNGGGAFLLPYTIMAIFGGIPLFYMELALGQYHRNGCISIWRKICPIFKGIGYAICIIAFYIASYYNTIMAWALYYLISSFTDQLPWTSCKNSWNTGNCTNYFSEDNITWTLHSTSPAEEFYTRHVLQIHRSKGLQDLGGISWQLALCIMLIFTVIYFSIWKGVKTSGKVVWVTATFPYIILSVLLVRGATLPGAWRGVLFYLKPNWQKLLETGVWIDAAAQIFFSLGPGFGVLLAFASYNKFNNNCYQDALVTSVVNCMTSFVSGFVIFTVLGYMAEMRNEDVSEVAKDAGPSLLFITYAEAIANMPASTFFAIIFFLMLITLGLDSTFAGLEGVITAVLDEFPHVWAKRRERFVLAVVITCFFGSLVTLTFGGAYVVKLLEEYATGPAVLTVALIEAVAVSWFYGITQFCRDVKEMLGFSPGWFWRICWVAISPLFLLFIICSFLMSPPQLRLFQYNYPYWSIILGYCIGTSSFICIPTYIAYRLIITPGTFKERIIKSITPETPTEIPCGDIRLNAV
Description: PDSP Primary Binding target: SLC6A4 - Compounds are tested at 10 uM concentration, plate are incubated at room temperature in the dark for 90 minutes. Reaction are stopped by vacuum filtration onto 0.3% polyethyleneimine soaked filter mats using Filtermate harvester. Scintilation cocktail is then melted onto microwave-dried filters on a hot plate and the radio activity is counted in Microbia counter.

Broadly, the inhibition is the relative decrease from the control value, in per cent.

Molecules are shown by their SMILES.

Chain of 5-hydroxytryptamine receptor 6 (Homo sapiens) (P50406 whole entry): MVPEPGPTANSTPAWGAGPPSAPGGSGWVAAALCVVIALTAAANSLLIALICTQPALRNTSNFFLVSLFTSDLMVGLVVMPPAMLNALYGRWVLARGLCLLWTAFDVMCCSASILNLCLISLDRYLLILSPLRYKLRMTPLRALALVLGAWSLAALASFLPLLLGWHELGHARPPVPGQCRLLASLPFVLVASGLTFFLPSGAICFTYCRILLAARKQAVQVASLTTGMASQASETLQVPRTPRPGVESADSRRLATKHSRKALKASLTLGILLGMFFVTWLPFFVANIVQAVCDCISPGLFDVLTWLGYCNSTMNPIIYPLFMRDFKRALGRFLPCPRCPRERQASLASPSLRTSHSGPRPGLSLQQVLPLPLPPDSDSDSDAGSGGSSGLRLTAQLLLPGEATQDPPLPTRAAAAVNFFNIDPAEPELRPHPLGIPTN
Chain of Mu-type opioid receptor (Homo sapiens) (P35372 whole entry): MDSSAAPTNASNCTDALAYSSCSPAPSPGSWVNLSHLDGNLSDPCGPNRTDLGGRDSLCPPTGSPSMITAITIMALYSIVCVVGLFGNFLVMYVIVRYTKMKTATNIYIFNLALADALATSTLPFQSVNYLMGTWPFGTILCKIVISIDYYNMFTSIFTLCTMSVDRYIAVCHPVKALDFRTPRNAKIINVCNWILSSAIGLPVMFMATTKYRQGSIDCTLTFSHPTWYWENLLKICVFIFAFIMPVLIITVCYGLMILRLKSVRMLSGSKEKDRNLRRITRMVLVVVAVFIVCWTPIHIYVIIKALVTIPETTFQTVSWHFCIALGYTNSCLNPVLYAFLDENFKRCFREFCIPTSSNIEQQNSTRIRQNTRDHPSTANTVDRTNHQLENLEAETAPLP

Take `O=c1ccc2ccc(OCCCCN3CCN(c4cccc5sccc45)CC3)cc2[nH]1`: the inhibition in experiment [1] is 97.3%; in [2], 92.5%; in experiment [3] it was 104%; in [4] it was 94.3%; in experiment [5], -3.44%; in experiment [6], 101%. For the same compound, the inhibition in experiment [7] was -1.82%; in [8], 26.8%; in experiment [9], 98.2%.
For `Cc1cc(NC(=O)NCCN2CCC(O)(Cc3ccccc3)CC2)c2ccccc2n1`, the inhibition in [1] was 26.1%; in experiment [2], 16.2%; in experiment [3], 82.4%; in experiment [4], 29.6%; in experiment [5] it was 16.1%; in [6] it was 8.02%. For the same compound, the inhibition in experiment [7] was 15.6%; in experiment [8], 43.3%; in experiment [9], 66.3%.
In the case of `CNc1nc(NCc2ccc(NS(C)(=O)=O)cc2Cl)cc(-c2ccccn2)n1`, the inhibition in experiment [1] is 26.4%; in experiment [2], 12.4%; in experiment [3], 43.2%; in experiment [4] it was 24.4%; in experiment [5] it was -5.61%; in experiment [6], 47%. Further, the inhibition in experiment [7] is -8.14%; in experiment [8], 14.5%; in experiment [9] it was 42.1%.
Regarding `CN1CCCC(n2nc(Cc3ccc(Cl)cc3)c3ccccc3c2=O)CC1` (configuration not stated), the inhibition in [1] was 72.7%; in experiment [2], 88.2%; in experiment [3] it was 62.3%; in [4] it was 79.1%; in experiment [5] it was 36.1%; in experiment [6] it was 74.7%. Further, the inhibition in experiment [7] is 24.1%; in [8] it was 29.4%; in experiment [9] it was 19.8%.
In the case of `CCCCCCCCCCCCC/C=C/[C@@H](O)[C@@H](N)COP(=O)(O)O`, the inhibition in experiment [1] was -1.45%; in [2] it was 9.46%; in [3], 4.33%; in [4] it was -1.62%; in experiment [5], -7.68%; in experiment [6] it was 3.57%. Also, the inhibition in experiment [7] was 20.4%; in [8] it was 30.4%; in experiment [9] it was -0.47%.
Consider `OCc1cc(C(O)CNCCCCCCOCCCCc2ccccc2)ccc1O` (configuration not stated), for which the inhibition was 47.7% in [1]; 65.8% in experiment [2]; 58% in [3]; 74.1% in experiment [4]; 3.27% in experiment [5]; 18% in experiment [6]. Besides, the inhibition is 5.6% in experiment [7], 6.99% in experiment [8] and 91.4% in experiment [9].
Take `CN(C)C(=O)N[C@H]1CC[C@H](CCN2CCN(c3cccc(Cl)c3Cl)CC2)CC1`: the inhibition is 83.4% in experiment [1]; 89.4% in experiment [2]; 95% in experiment [3]; 90.6% in [4]; 29.1% in [5]; 69.7% in experiment [6]. The inhibition in experiment [7] is 11.3%; in [8], 4.29%; in experiment [9], 55%.
For the compound `c1nc(CC2CCNCC2)c[nH]1`, the inhibition was 15.3% in experiment [1]; 7.26% in [2]; 14.5% in experiment [3]; 23% in experiment [4]; 10.6% in experiment [5]; 18.8% in experiment [6]. The inhibition in experiment [7] is 3.71%; in [8], -6.55%; in experiment [9], 1.26%.
In the case of `O=C(O)c1cc(-c2ccc(C3CCNCC3)cc2)c2ccc(-c3ccc(C(F)(F)F)cc3)cc2c1`, the inhibition in [1] is 38.4%; in [2] it was 16.7%; in experiment [3], 42.2%; in experiment [4] it was 40.4%; in experiment [5], 10.7%; in experiment [6], 11.3%. Also, the inhibition in [7] was 14%; in experiment [8], 26.5%; in experiment [9], 4.44%.
On to `Cc1c(P(=S)(c2ccccc2)c2ccccc2)n2ccccc2[n+]1C/C=C/c1ccccc1`, for which the inhibition in [1] is 39.9%; in experiment [2], 8.81%; in [3], 58.1%; in experiment [4], 45.7%; in experiment [5], 57.4%; in [6], 43.6%. Also, the inhibition in [7] was 36.7%; in [8], 87.3%; in experiment [9] it was 29.7%.
Turning to `CN1CCN(c2ccc(Nc3c4ccccc4nc4ccccc34)cc2)CC1`, the inhibition is 53.5% in [1]; 59.2% in experiment [2]; 70.5% in experiment [3]; 66% in experiment [4]; 63.8% in experiment [5]; 13.8% in experiment [6]. Besides, the values for the inhibition in [7], in experiment [8] and in experiment [9] were 5.07%, 12.4% and 87.7%, respectively.
In the case of `COc1ccccc1N1CCN(CCCCNC(=O)c2ccc3ccccc3c2)CC1`, the inhibition in experiment [1] is 96.8%; in experiment [2] it was 94%; in experiment [3], 100%; in experiment [4] it was 99.5%; in [5], 7.22%; in experiment [6], 37.4%. For the same compound, the figures for the inhibition in experiment [7], in experiment [8] and in [9] were -2.88%, 79.8% and 83.7%, respectively.
Take `NC(=O)[C@@H]1CCCN1C(=O)[C@H](Cc1c[nH]cn1)NC(=O)[C@@H]1CCC(=O)N1`: the inhibition in [1] was -3.89%; in experiment [2], -8.73%; in [3], 12.4%; in experiment [4] it was 14%; in experiment [5] it was -6.24%; in experiment [6] it was 10.6%. Also, the values for the inhibition in experiment [7], in [8] and in experiment [9] were 1.37%, 45.1% and 5.26%, respectively.

Values taken from ChEMBL document CHEMBL5442219.
